From patent US11873486B2, “Modulating dsRNA editing, sensing, and metabolism to increase tumor immunity and improve the efficacy of cancer immunotherapy and/or modulators of intratumoral interferon” (Dana-Farber Cancer Institute, Inc., priority 2017, dated 2024)
“Also recorded” adds a separate entry of the source.

Tests used:
[1] = test system: A549 ADAR1 knockout cells; experiment: Immunoblot of interferon regulated genes in ADAR1 knockout cell lines; format: cell-based, human; settings: 500 nM
Procedure: (§1) Cells were lysed in RIPA lysis buffer (Thermo Scientific) supplemented with 1× protease and phosphatase inhibitor cocktails (Roche). Protein extracts were analyzed by standard immunoblotting with the following antibodies: ADAR1 (D7E2M), MDA5 (D74E4), RIG-I (D14G6), ISG15 (22D2), USP18 (D4E7), PKR (#3072), STING (D2P2F), cGAS (D1D3G), IRF9 (D2T8M), PD-L1 (E1L3N), P-IRF3 Ser396 (4D4G), IRF3 (D6I4C), P-TBK1 Ser172 (D52C2), TBK1 (D1B4), P-EIF2α Ser51 (#9721), and EIF2α (D7D3) from Cell Signaling; P-PKR Thr446 (ab32036) from Abcam; R-actin C4 (sc-47778) from Santa Cruz. All antibodies were used at a dilution of 1:1000 except R-actin which was used at 1:4000). The following secondary antibodies were used at 1:5000 dilution: Goat anti-Rabbit IRDye 800CW (LI-COR, 926-32211) and Goat anti-Mouse IRDye […] (LI-COR, 926-68020). All immunoblots were imaged using the LI-COR digital imaging system and ImageJ.

[2] = test system: ADAR1 knockout A549 cells; experiment: Viability of ADAR1 knockout A549 cells with interferon or drug treatment; format: cell-based, human
Procedure: For drug treatment assays, cells were plated at a density of 3000 cells per well in a 96-well assay plate. The following day, cells were treated with ruxolitinib (INCB018424) from Selleck Chemicals; MRT67307 hydrocloride (SML0702) from Sigma-Aldrich; human interferon-alphal (#8927) from Cell Signaling; recombinant human IFN-beta 1a (mammalian) protein (114151) and recombinant human IFN-gamma protein (285-IF-100) from R&D Systems. For preincubation drug treatment experiments, cells were plated in the presence of ruxolitinib and were treated with interferon-0 and ruxolitinib the following day. Control wells were treated with dimethylsulfoxide (DMSO). Cell viability was assayed 3 or 6 days after drug treatment with CellTiter-Glo® Luminescent Cell Viability Assay kit (Promega). Viability was normalized to DMSO controls.
for interferon treatment assays, cells were plated at a low density of 3000 cells per well in a 96-well assay plate. The following day, cells were treated with human interferon-alpha 1 (Cell Signaling, #8927) or recombinant human IFN-beta 1a (mammalian) protein (PBL Assay Science, 114151). Control wells were treated with water. Cell viability was assayed 3 or 6 days after drug treatment with CellTiter-Glo© Luminescent Cell Viability Assay kit (Promega). Viability was normalized to controls. Apoptosis was assayed 3 days after interferon treatment with Caspase-Glo®3/7 Assay kit (Promega). Dose curves were obtained using least-squares nonlinear regression on a standard four-parameter logistic model using GraphPad Prism.

[3] = test system: HCC366, NCI-H1650 and NCI-H196 cell lines; experiment: Cell viability after CRISPR-Cas9 knockout of ADAR1 (CellTiter-Glo); format: cell-based, human; settings: 6 days after CRISPR-Cas9 knockout of ADAR1
Excerpt: (§2) guide RNA sequences were designed using the sgRNA designer tool on The RNAi Consortium (TRC) portal (available on the World Wide Web at portals.broadinstitute.org/gpp/public/analysis-tools/sgrnadesign). […] Guide sequences were cloned into the Cas9 expressing lentiviral vector CRISPRv2 (available on the World Wide Web at genomeengineering.org/crispr). For virus production, each CRISPRv2 vector and packaging vectors were introduced into 293T cells via calcium phosphate transfection (Clontech). Lentivirus was harvested in RPMI media supplemented with 10% FBS and filtered before addition to each cancer cell line. Infected cells were selected in 2 μg/ml puromycin or 10 μg/ml blasticidin for 7 days. Following this, protein lysates were harvested or cells were plated for proliferation assays in 96 well plates and grown in the presence of RPMI containing 10% FBS and 1 μg/ml puromycin or 5 μg/ml blasticidin. Immunoblotting confirmed decreased protein levels of each gene across the pool of infected cells. For cell viability experiments, cells were plated at a density of 3000 cells per well in a 96-well assay plate. Cell viability was assayed 3 and 6 days later with the CellTiter-Glo® Luminescent Cell Viability Assay kit (Promega). […]

A549 cells = experiment: Cell viability after CRISPR-Cas9 knockout of ADAR1, control cells; format: cell-based, human; settings: 6 days after CRISPR-Cas9 knockout of ADAR1
Excerpt: as §2

ADAR1 = experiment: Immunoblot of ADAR1 after CRISPR-Cas9 knockout; format: cell-based, human; settings: A549 cells
Procedure: as §1
guide RNA sequences were designed using the sgRNA designer tool on The RNAi Consortium (TRC) portal (available on the World Wide Web at portals.broadinstitute.org/gpp/public/analysis-tools/sgrnadesign). […] Guide sequences were cloned into the Cas9 expressing lentiviral vector CRISPRv2 (available on the World Wide Web at genomeengineering.org/crispr). For virus production, each CRISPRv2 vector and packaging vectors were introduced into 293T cells via calcium phosphate transfection (Clontech). […]

ADAR = experiment: Western blot of ADAR isoforms in B16 cells; format: cell-based, mouse; settings: with or without IFNβ addition
Procedure: Whole cell lysates were prepared in lysis buffer (60 mM Tris HC, 2% SDS, 10% glycerol, complete EDTA-free protease-inhibitor (Roche, Basel, Switzerland), and 500 U/mL benzonase nuclease (Novagen, Merck, Darmstadt, Germany)). Samples were boiled at 100° C. and clarified by centrifugation. Protein concentration was measured with a BCA protein assay kit (Pierce, Dallas, Texas). Fifty to one hundred and fifty micrograms of protein was loaded on 4-12% Bolt® Bis-Tris Plus gels (Life Technologies, Carlsbad, CA) in MES buffer (Life Technologies). Protein was transferred to 0.45 μm nitrocellulose membranes (Bio-Rad, Hercules, CA). Membranes were blocked in Tris-buffered saline plus 0.1% Tween 20 (TBS-T) containing 5% non-fat dry milk for 1 hour at room temperature followed by overnight incubation with primary antibody at 4° C. Membranes were washed with TBS-T and incubated with HRP-conjugated secondary antibodies for 1 hour at room temperature. […] Blots were then analyzed using ImageJ and Adobe® Photoshop® software. […]
Whole cell lysates were prepared in lysis buffer (60 mM Tris HCl, 2% SDS, 10% glycerol, complete EDTA-free protease-inhibitor (Roche), and 500 U/mL benzonase nuclease (Novagen)). […] Protein concentration was measured with a BCA protein assay kit (Pierce). […] Blots were then analyzed using ImageJ and Adobe Photoshop software. […]

B16 tumor cells [4] = experiment: In vitro cytokine stimulation and growth inhibition assay; format: cell-based, mouse; settings: Adar-deficient versus control B16 tumor cells, 72 hours
Procedure: (§3) FIG. 9 includes 3 panels, identified as panels A, B, and C, which provide exemplary mechanisms of ADAR-induced sensitivity to checkpoint blockade. […] A certain number of B16 tumor cells (50 k; Adar null or control) were stimulated in vitro with cytokine for 72 hours and the cell numbers were then counted. […] A certain number of B16 tumor cells (50 k; Adar null or control) were stimulated with cytokine in vitro, washed to remove cytokine (for IFNβ), and evaluated via IFNβ ELISA. […] A certain number of B16 tumor cells (50 k; Adar null or control) were stimulated in vitro with cytokine for 72 hours and stained for Class I MHC and PD-L1.
Tumor cells were engineered as noted above and plated in DMEM+10% FBS containing the indicated combinations of cytokines: IFN (1,000 U/ml, PBL), IFN (100 ng/ml, Cell Signaling Technologies), TNF (10 ng/ml, PreproTech). For rescue/re-expression experiments, 10,000 cells were plated in 96-well plates and viable cells were enumerated after 72 hours using Cell Titer-Glo® (Promega, G7570). For all other growth inhibition assays, 50,000 cells were plated in 12-well plates and viable cells were counted after 72 hours using the Countess automated cell counting system (Thermo Fisher Scientific, C10227).

B16 tumor cells [5] = experiment: IFNβ ELISA of tumor cell supernatant; format: cell-based, mouse; settings: Adar-deficient B16 tumor cells
Procedure: as §3
Cells were seeded at a density of 10,000 cells per well in a 96-well plate. Mouse interferon beta (pbl assay science) was then added. After 24 hrs of incubation at 37° C., the supernatant was aspirated from the wells to remove the mouse interferon beta. The wells were then gently washed once with media. Fresh warm media was then replaced in the wells. After 48 hrs of incubation at 37° C., the supernatant was collected, and the concentration of interferon beta was determined using The VeriKine Mouse Interferon Beta ELISA Kit (pbl assay science).

Molecule: Nc1ncn([C@@H]2O[C@H](CO)[C@@H](O)[C@H]2O)c(=O)n1 [azacitidine, 5-azacytidine]
- expression of MDA5 [1]: induced expression of interferon regulated gene MDA5
- phosphorylation of EIF2α [1]: increased phosphorylation of EIF2α
- sensitization to ADAR1 knockout [2]: sensitized A549 cells to ADAR1 knockout

Molecule: AGATAGCCATGCTGAGCCAC (chemistry not fully specified) [ADAR1 sg2]
- viability [3]: decreased viability
- viability (A549 cells): no effect on control cells
- ADAR1 protein (immunoblot) (ADAR1): knockout of ADAR1 isoforms p150 and p110

Molecule: CACCGTCTACAGCCCTACCTTGCCA (antisense AAACTGGCAAGGTAGGGCTGTAGAC; listed as DNA, chemistry not fully specified) [Mouse Adar sgRNA 2, P110 and P150]
- depletion of ADAR isoforms (Western blot) (ADAR): effectively depleted both isoforms

Molecule: CACCGTCTGGATTCACAACTCCAGG (antisense AAACCCTGGAGTTGTGAATCCAGAC; listed as DNA, chemistry not fully specified) [Mouse Adar sgRNA1, P150 only]
- depletion of ADAR isoforms (Western blot) (ADAR): effectively depleted the P150 isoform of ADAR, but not the P110 isoform of ADAR

Molecule: GTGCATACACTCAAGCAGTG (chemistry not fully specified) [ADAR1 sg1]
- viability [3]: decreased viability
- viability (A549 cells): no effect on control cells
- ADAR1 protein (immunoblot) (ADAR1): knockout of ADAR1 isoforms p150 and p110

B1: IFNβ: mouse interferon beta (1000 U/mL, PBL) used on B16 cells (protein, UniProt P01575 22-182, looked up)
Interferon beta: INYKQLQLQERTNIRKCQELLEQLNGKINLTYRADFKIPMEMTEKMQKSYTAFAIQEMLQNVFLVFRNNFSSTGWNETIVVRLLDELHQQTVFLKTVLEEKQEERLTWEMSSTALHLKSYYWRVQRYLKLMKYNSYAWMVVRAEIFRNFLIIRRLTRNFQN
- cytokine-induced growth arrest (B16 tumor cells [4]): increases IFNβ and IFNγ-induced growth arrest; also recorded: increases susceptibility to IFNβ and IFNγ
- IFNβ secretion after interferon stimulation (B16 tumor cells [5]): make IFNβ when stimulated with IFNβ
